This is an account of results in the Kinase Knowledgebase extract (Sharma et al. 2016).

The target in the assay is MAPK14 (UniProt Q16539). Description: Inhibition of MAPK14 Kinase Activity.
MAPK14, sequence (Q16539 whole entry, looked up): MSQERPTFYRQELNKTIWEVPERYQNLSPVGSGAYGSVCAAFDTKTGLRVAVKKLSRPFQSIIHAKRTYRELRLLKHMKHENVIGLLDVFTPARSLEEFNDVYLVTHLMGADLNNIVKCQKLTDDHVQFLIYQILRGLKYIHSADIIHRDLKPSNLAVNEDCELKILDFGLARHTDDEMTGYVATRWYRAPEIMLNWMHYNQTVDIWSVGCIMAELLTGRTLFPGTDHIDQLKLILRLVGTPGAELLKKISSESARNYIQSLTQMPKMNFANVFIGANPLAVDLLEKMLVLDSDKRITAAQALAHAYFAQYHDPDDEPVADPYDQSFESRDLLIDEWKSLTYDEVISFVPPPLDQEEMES
Regarding `Cc1cc(F)ccc1-c1nc(N(Cc2c(F)cccc2F)C(N)=O)ccc1CO`, the IC50 (as a rule, the concentration needed to halve the response being measured) was found to be 2200 nM. This counts as single-digit micromolar.

`COc1ccccc1-c1cccc(N(Cc2ccccc2Cl)C(N)=O)n1` had an IC50 above 100000 nM.

The compound `COc1ccccc1-c1cccc(N(Cc2ccccc2F)C(N)=O)n1` registered an IC50 above 100000 nM.

`Cc1cc(F)ccc1-c1cccc(N(Cc2c(Cl)cccc2Cl)C(N)=O)n1` registered an IC50 of 2150 nM.

Regarding `NC(=O)N(Cc1c(Cl)cccc1Cl)c1cccc(-c2ccccc2Cl)n1`, the IC50 was above 100000 nM.

Turning to `NC(=O)N(Cc1ccccc1Cl)c1cccc(-c2cccc(F)c2)n1`, the IC50 came out at 79400 nM.

For `NC(=O)N(Cc1c(F)cccc1F)c1ccc(CO)c(-c2ccccc2Cl)n1`, the IC50 was above 100000 nM.

In the case of `Cc1ccccc1-c1cccc(N(Cc2cccc(F)c2)C(N)=O)n1`, the IC50 was found to be 751 nM.

`NC(=O)N(Cc1ccccc1F)c1cccc(-c2ccc(Cl)cc2)n1` registered an IC50 above 100000 nM.

Compound `Cc1cc(F)ccc1-c1cccc(N(Cc2cccc(F)c2)C(N)=O)n1` gave an IC50 of 1250 nM.

`NC(=O)N(Cc1ccc(Cl)cc1Cl)c1cccc(-c2ccccc2Cl)n1` displayed an IC50 of 25100 nM.

`NC(=O)N(Cc1c(Cl)cccc1Cl)c1ccc(CO)c(-c2ccccc2Cl)n1`: the IC50 was above 100000 nM.

`NC(=O)N(Cc1ccccc1F)c1ccc(CO)c(-c2ccccc2Cl)n1` gave an IC50 of 1000 nM.

The compound `NC(=O)N(Cc1ccccc1Cl)c1cccc(-c2cc(F)ccc2F)n1` came in with an IC50 of 35500 nM.

In the case of `NC(=O)N(Cc1ccccc1F)c1cccc(-c2ccccc2Cl)n1`, the IC50 came out at 961 nM. Against the preceding compound, the IC50 is about 37-fold lower.

Compound `NC(=O)N(Cc1ccccc1Cl)c1cccc(-c2ccccc2F)n1` returned an IC50 above 100000 nM.

As for `NC(=O)N(Cc1ccccc1)c1cccc(-c2ccccc2Cl)n1`, the IC50 turned out to be 2800 nM.

`Cc1ccccc1-c1cccc(N(Cc2c(Cl)cccc2Cl)C(N)=O)n1` yielded an IC50 of 8910 nM. This IC50 lies about 3.2-fold higher than the previous one.

The compound `Cc1ccccc1-c1cccc(N(Cc2ccccc2Cl)C(N)=O)n1` came in with an IC50 of 873 nM.

`NC(=O)N(Cc1c(Cl)cccc1Cl)c1cccc(-c2c(F)cccc2F)n1`: the IC50 was found to be 12600 nM.

The compound `NC(=O)N(Cc1ccccc1F)c1cccc(-c2ccc(F)cc2)n1` displayed an IC50 above 100000 nM.

`NC(=O)N(Cc1ccc(F)cc1)c1cccc(-c2ccccc2Cl)n1` came in with an IC50 of 1130 nM.

On to `Cc1cc(C)cc(-c2cccc(N(Cc3ccccc3Cl)C(N)=O)n2)c1`, for which the IC50 was above 100000 nM.

`Cc1ccccc1-c1cccc(N(Cc2c(F)cccc2F)C(N)=O)n1` gave an IC50 of 3160 nM.

`Cc1ccccc1-c1cccc(N(Cc2ccccc2F)C(N)=O)n1` had an IC50 of 888 nM.

As to `Cc1cc(F)ccc1-c1cccc(N(Cc2ccccc2Cl)C(N)=O)n1`, the IC50 was above 100000 nM.

The compound `NC(=O)N(Cc1cccc(F)c1)c1cccc(-c2ccccc2Cl)n1` returned an IC50 of 1120 nM.

`Cc1ccccc1-c1nc(N(Cc2c(Cl)cccc2Cl)C(N)=O)ccc1CO` yielded an IC50 above 100000 nM.

Compound `Cc1cc(F)ccc1-c1cccc(N(Cc2c(F)cccc2F)C(N)=O)n1` returned an IC50 of 2810 nM.

As for `COc1ccc(-c2cccc(N(Cc3ccccc3F)C(N)=O)n2)cc1`, the 50% inhibitory concentration (IC50) was above 100000 nM.

For `Cc1cc(F)ccc1-c1nc(N(Cc2c(Cl)cccc2Cl)C(N)=O)ccc1CO`, the concentration for half-maximal inhibition (IC50) is 100000 nM.

Compound `Cc1ccccc1-c1cccc(N(CCc2ccccc2)C(N)=O)n1` had an IC50 of 978 nM.

Consider `NC(=O)N(Cc1c(F)cccc1F)c1ccc(CO)c(-c2ccc(F)cc2F)n1`, for which the IC50 is 1580 nM. This IC50 lies about 1.6-fold higher than the previous one.

Compound `NC(=O)N(Cc1ccccc1Cl)c1cccc(-c2ccccc2Cl)n1` returned an IC50 of 900 nM.

`NC(=O)N(Cc1ccc(Cl)cc1Cl)c1cccc(-c2ccc(Cl)cc2)n1` gave an IC50 of 100000 nM.

On to `NC(=O)N(Cc1ccccc1Cl)c1cccc(-c2ccc(Cl)cc2)n1`, for which the IC50 was above 100000 nM.

Compound `NC(=O)N(Cc1ccccc1Cl)c1cccc(-c2ccc(F)cc2)n1` yielded an IC50 above 100000 nM.
